Columns and labels:
Assay type in all cases: cell-based
[1] = target: T1, 17-beta-hydroxysteroid dehydrogenase type 3 (Homo sapiens) (UniProt P37058); assay: Percent inhibition against type-3 17-beta-HSD expressed in HEK293 cells at 3 uM
T1 sequence (whole entry): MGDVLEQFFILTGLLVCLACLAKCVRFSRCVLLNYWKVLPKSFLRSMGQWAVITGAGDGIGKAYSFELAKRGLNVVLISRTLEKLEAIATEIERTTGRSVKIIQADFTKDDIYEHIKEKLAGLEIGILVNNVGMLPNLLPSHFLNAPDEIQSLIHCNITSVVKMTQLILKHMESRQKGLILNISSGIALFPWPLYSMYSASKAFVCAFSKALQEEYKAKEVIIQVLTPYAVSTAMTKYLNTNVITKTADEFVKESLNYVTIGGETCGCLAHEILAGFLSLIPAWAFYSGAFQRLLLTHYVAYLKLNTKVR

[2] = target: T2, 17-beta-hydroxysteroid dehydrogenase type 3 (Homo sapiens, UniProt P37058); assay: Inhibitory concentration against type-3 17-beta-HSD expressed in HEK293 cells
T2 sequence (P37058 whole entry): T1 sequence (whole entry)

[3] = target: T1, 17-beta-hydroxysteroid dehydrogenase type 3 (Homo sapiens); assay: Percent inhibition against type-3 17-beta-HSD expressed in HEK293 cells at 0.3 uM

| SMILES | inhibition [1] | IC50 [2] | inhibition [3] |
| --- | --- | --- | --- |
| C[C@]12CC[C@](O)(CCc3ccccc3)CC1CC[C@@H]1[C@@H]2CC[C@]2(C)C(=O)CC[C@@H]12 (stereo partly drawn) | 93% | 99 nM | 93% |
| C[C@@]1(O)CC[C@@]2(C)C(CC[C@@H]3[C@@H]2CC[C@]2(C)C(=O)CC[C@@H]32)C1 (stereo partly drawn) | 93% | – | 72% |
| CCC(C)[C@@]1(O)CC[C@@]2(C)C(CC[C@@H]3[C@@H]2CC[C@]2(C)C(=O)CC[C@@H]32)C1 (stereo partly drawn) | 90% | 73 nM | 85% |
| C[C@]12CC[C@](O)(C3CCCCC3)CC1CC[C@@H]1[C@@H]2CC[C@]2(C)C(=O)CC[C@@H]12 (stereo partly drawn) | 93% | 97 nM | 88% |
| C[C@]12CC[C@](O)(c3ccccc3)CC1CC[C@@H]1[C@@H]2CC[C@]2(C)C(=O)CC[C@@H]12 (stereo partly drawn) | 95% | 81 nM | 88% |
| C[C@]12CC[C@@H](O)C[C@H]1CC[C@@H]1[C@@H]2CC[C@]2(C)C(=O)CC[C@@H]12 [ETIOCHOLANOLONE] | 88% | 330 nM | 50% |
| C[C@]12CCC(=O)C=C1CC[C@@H]1[C@@H]2CC[C@]2(C)C(=O)CC[C@@H]12 [ANDROSTENEDIONE] | 78% | 758 nM | 24% |
| CCCCCC[C@@]1(O)CC[C@@]2(C)C(CC[C@@H]3[C@@H]2CC[C@]2(C)C(=O)CC[C@@H]32)C1 (stereo partly drawn) | 96% | 100 nM | 93% |
| C[C@]12CC[C@](O)(CCC3CCCCC3)CC1CC[C@@H]1[C@@H]2CC[C@]2(C)C(=O)CC[C@@H]12 (stereo partly drawn) | 93% | 60 nM | 92% |
| C[C@]12CC[C@](O)(CC3CCCCC3)CC1CC[C@@H]1[C@@H]2CC[C@]2(C)C(=O)CC[C@@H]12 (stereo partly drawn) | 95% | 87 nM | 93% |
| CCCCCCCC[C@@]1(O)CC[C@@]2(C)C(CC[C@@H]3[C@@H]2CC[C@]2(C)C(=O)CC[C@@H]32)C1 (stereo partly drawn) | 92% | 147 nM | 88% |
| CCC[C@@]1(O)CC[C@@]2(C)C(CC[C@@H]3[C@@H]2CC[C@]2(C)C(=O)CC[C@@H]32)C1 (stereo partly drawn) | 94% | 67 nM | 89% |
| C[C@]12CC[C@](O)(Cc3ccccc3)CC1CC[C@@H]1[C@@H]2CC[C@]2(C)C(=O)CC[C@@H]12 (stereo partly drawn) | 94% | 57 nM | 90% |

Reference: ChEMBL document CHEMBL1133052, “Androsterone 3beta-substituted derivatives as inhibitors of type 3 17beta-hydroxysteroid dehydrogenase” (Bioorg Med Chem Lett, 2000)
